Reference: ChEMBL document CHEMBL1201862, “PubChem BioAssay data set” (2004)
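These data come from cells grown in 96-well plates and exposed to compound for 48 hours at five concentrations. Abbreviation: GI50, concentration required for 50% inhibition of growth.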 The source made the active and inactive calls. No stated cut-off is given here; in the data, active = GI50 up to about 1.1 µM and inactive = higher.

Assays:
Assay in all cases: NCI-60 cell line screen, 48 h
SW-620 = tested on: SW-620
SK-MEL-2 = tested on: SK-MEL-2
OVCAR-3 = tested on: OVCAR-3
LOX IMVI = tested on: LOX IMVI
HT-29 = tested on: HT-29
SK-MEL-28 = tested on: SK-MEL-28
OVCAR-4 = tested on: OVCAR-4
SK-OV-3 = tested on: SK-OV-3
786-0 = tested on: 786-0
HCT-15 = tested on: HCT-15
SF-268 = tested on: SF-268
SF-295 = tested on: SF-295
UACC-62 = tested on: UACC-62
NCI-H522 = tested on: NCI-H522
NCI-H23 = tested on: NCI-H23
HCC 2998 = tested on: HCC 2998
HL-60 = tested on: HL-60
NCI-H226 = tested on: NCI-H226
HOP-92 = tested on: HOP-92
COLO 205 = tested on: COLO 205

Structure (SMILES) | GI50 (SW-620) | GI50 (SK-MEL-2) | GI50 (OVCAR-3) | GI50 (LOX IMVI) | GI50 (HT-29) | GI50 (SK-MEL-28) | GI50 (OVCAR-4) | GI50 (SK-OV-3) | GI50 (786-0) | GI50 (HCT-15) | GI50 (SF-268) | GI50 (SF-295) | GI50 (UACC-62) | GI50 (NCI-H522) | GI50 (NCI-H23) | GI50 (HCC 2998) | GI50 (HL-60) | GI50 (NCI-H226) | GI50 (HOP-92) | GI50 (COLO 205)
CC[N+]1(C)CCC(O)(c2ccc(OC)cc2)C(C(=O)c2ccc(OC)cc2)C1 (stereo not given) | 2.08 µM (inactive) | 18.8 µM (inactive) | 12.4 µM (inactive) | 16.3 µM (inactive) | 7.03 µM (inactive) | 15.1 µM (inactive) | 22 µM (inactive) | 18 µM (inactive) | 3.18 µM (inactive) | 10.2 µM | 21.2 µM (inactive) | 20 µM (inactive) | 18.8 µM (inactive) | 1.98 µM (inactive) | 17.9 µM (inactive) | 19.6 µM (inactive) | 2.52 µM (inactive) | 18.7 µM (inactive) | 2.63 µM (inactive) | 3.15 µM (inactive)
CC(=O)c1ccccc1NS(=O)(=O)c1ccc2nc(C)n(NS(=O)(=O)c3ccccc3C(C)=O)c(=O)c2c1 | > 100 µM (inactive) | > 100 µM (inactive) | > 100 µM (inactive) | > 100 µM (inactive) | > 100 µM (inactive) | > 100 µM (inactive) | > 100 µM (inactive) | > 100 µM (inactive) | > 100 µM (inactive) | > 100 µM | > 100 µM (inactive) | > 100 µM (inactive) | > 100 µM (inactive) | > 100 µM (inactive) | > 100 µM (inactive) | > 100 µM (inactive) | > 100 µM (inactive) | > 100 µM (inactive) | > 100 µM (inactive) | > 100 µM (inactive)
Cc1ccc(C)c(N2C(=O)C(=O)C(c3nc4ccccc4o3)/C(=N\NC(=O)c3ccccc3O)C2=O)c1 (stereo not given) | 29.6 µM (inactive) | 29.6 µM (inactive) | 16.6 µM (inactive) | 32.4 µM (inactive) | 32.1 µM (inactive) | > 100 µM (inactive) | 11.7 µM (inactive) | 87.1 µM (inactive) | 27.4 µM (inactive) | 18 µM | 12.2 µM (inactive) | 56.2 µM (inactive) | 5.68 µM (inactive) | 17.5 µM (inactive) | 10.7 µM (inactive) | 67.3 µM (inactive) | < 0.01 µM (active) | 12.2 µM (inactive) | 41.7 µM (inactive) | 24.2 µM (inactive)
CC[C@@]1(O)C(=O)OCc2c1cc1n(c2=O)Cc2c-1nc1ccccc1c2/C=N\NC(=O)C(N)CO (stereo not given in full) | 1.62 µM (inactive) | 32.4 µM (inactive) | 16.2 µM (inactive) | 0.329 µM (active) | 2.86 µM (inactive) | 19.2 µM (inactive) | 14.2 µM (inactive) | 2.36 µM (inactive) | 0.34 µM (active) | 4.1 µM | 0.0643 µM (active) | 0.505 µM (active) | < 0.0395 µM (active) | 1.28 µM (inactive) | 0.371 µM (active) | 12.1 µM (inactive) | 0.335 µM (active) | 0.627 µM (active) | 1.87 µM (inactive) | 32.1 µM (inactive)
O=C(/C=C/c1ccc(OCc2ccccc2)c(OCc2ccccc2)c1)OCc1ccccc1 | > 100 µM (inactive) | > 100 µM (inactive) | > 100 µM (inactive) | > 100 µM (inactive) | > 100 µM (inactive) | > 100 µM (inactive) | > 100 µM (inactive) | > 100 µM (inactive) | > 100 µM (inactive) | > 100 µM | > 100 µM (inactive) | > 100 µM (inactive) | > 100 µM (inactive) | > 100 µM (inactive) | > 100 µM (inactive) | > 100 µM (inactive) | > 100 µM (inactive) | > 100 µM (inactive) | > 100 µM (inactive) | > 100 µM (inactive)
O=C(O)/C(Cl)=C(\Cl)C(=O)c1ccccc1 | > 100 µM (inactive) | > 100 µM (inactive) | > 100 µM (inactive) | > 100 µM (inactive) | > 100 µM (inactive) | > 100 µM (inactive) | > 100 µM (inactive) | > 100 µM (inactive) | > 100 µM (inactive) | > 100 µM | > 100 µM (inactive) | > 100 µM (inactive) | > 100 µM (inactive) | > 100 µM (inactive) | > 100 µM (inactive) | > 100 µM (inactive) | > 100 µM (inactive) | > 100 µM (inactive) | > 100 µM (inactive) | > 100 µM (inactive)
Cc1cc(NC(=O)C(=O)Cc2cnc3ccccc3n2)c(S(=O)(=O)O)cc1Cl | > 100 µM (inactive) | > 100 µM (inactive) | > 100 µM (inactive) | > 100 µM (inactive) | > 100 µM (inactive) | > 100 µM (inactive) | > 100 µM (inactive) | > 100 µM (inactive) | > 100 µM (inactive) | > 100 µM | > 100 µM (inactive) | > 100 µM (inactive) | > 100 µM (inactive) | > 100 µM (inactive) | > 100 µM (inactive) | > 100 µM (inactive) | > 100 µM (inactive) | > 100 µM (inactive) | > 100 µM (inactive) | > 100 µM (inactive)
O=C1C(=O)C(CCCO)(CCCO)CCCCCCCCC1(CCCO)CCCO | > 100 µM (inactive) | 46.8 µM (inactive) | 32.2 µM (inactive) | 64.7 µM (inactive) | 67 µM (inactive) | 41.9 µM (inactive) | > 100 µM (inactive) | > 100 µM (inactive) | > 100 µM (inactive) | > 100 µM | 38.1 µM (inactive) | > 100 µM (inactive) | 88.1 µM (inactive) | 48.4 µM (inactive) | > 100 µM (inactive) | > 100 µM (inactive) | 12.4 µM (inactive) | > 100 µM (inactive) | 39.7 µM (inactive) | > 100 µM (inactive)
CC(=O)c1c(SCCN2CCCCCC2)n(-c2ccccc2)c(=S)n(-c2ccccc2)c1=O | 2.04 µM (inactive) | 19.4 µM (inactive) | 3.13 µM (inactive) | 3.16 µM (inactive) | 7.4 µM (inactive) | 11.2 µM (inactive) | 20.9 µM (inactive) | 48.3 µM (inactive) | 1.73 µM (inactive) | 5.61 µM | 11 µM (inactive) | 35.9 µM (inactive) | 7.85 µM (inactive) | 1.43 µM (inactive) | 17.3 µM (inactive) | 4.3 µM (inactive) | 0.019 µM (active) | 29 µM (inactive) | 6.53 µM (inactive) | 2.03 µM (inactive)
CN(C)CCCCN1c2ccccc2Sc2ccc(C(=O)c3ccccc3)cc21 | 1.77 µM (inactive) | 2.71 µM (inactive) | 3.98 µM (inactive) | 1.8 µM (inactive) | 1.89 µM (inactive) | 1.95 µM (inactive) | 3.23 µM (inactive) | 13 µM (inactive) | 1.82 µM (inactive) | 3.51 µM | 5.6 µM (inactive) | 2.15 µM (inactive) | 2.37 µM (inactive) | 2.91 µM (inactive) | 6.59 µM (inactive) | 1.83 µM (inactive) | 1.85 µM (inactive) | 5.96 µM (inactive) | 2.44 µM (inactive) | 1.64 µM (inactive)
Clc1ccc(C[P+](c2ccccc2)(c2ccccc2)c2ccccc2)cc1Cl | 2.93 µM (inactive) | 2.15 µM (inactive) | 2.06 µM (inactive) | 1.55 µM (inactive) | 1.91 µM (inactive) | 3.67 µM (inactive) | 4.4 µM (inactive) | 7.35 µM (inactive) | 4.85 µM (inactive) | 17 µM | 3.22 µM (inactive) | 10.3 µM (inactive) | 1.49 µM (inactive) | 1.89 µM (inactive) | 2.62 µM (inactive) | 2.46 µM (inactive) | 1.03 µM (active) | 2.8 µM (inactive) | 1.62 µM (inactive) | 1.55 µM (inactive)
Nc1ccc(Nc2cc(=O)[nH]c(=O)[nH]2)cc1Cl | > 100 µM (inactive) | > 100 µM (inactive) | > 100 µM (inactive) | > 100 µM (inactive) | > 100 µM (inactive) | > 100 µM (inactive) | > 100 µM (inactive) | > 100 µM (inactive) | > 100 µM (inactive) | > 100 µM | > 100 µM (inactive) | > 100 µM (inactive) | > 100 µM (inactive) | > 100 µM (inactive) | > 100 µM (inactive) | > 100 µM (inactive) | > 100 µM (inactive) | > 100 µM (inactive) | > 100 µM (inactive) | > 100 µM (inactive)
C=C(C=O)[C@@H]1C2OC(=O)C(=C)[C@@H]2CC(O)[C@@]1(C)CC (stereo not given in full) | 3.16 µM (inactive) | 13.2 µM (inactive) | 6.71 µM (inactive) | 15.8 µM (inactive) | 6.75 µM (inactive) | 3.83 µM (inactive) | 11.5 µM (inactive) | > 60.5 µM (inactive) | 3.32 µM (inactive) | 6.22 µM | 23.8 µM (inactive) | 22.4 µM (inactive) | 4.12 µM (inactive) | 1.87 µM (inactive) | 7.23 µM (inactive) | 16.6 µM (inactive) | 2.25 µM (inactive) | 32 µM (inactive) | 2.33 µM (inactive) | 5.66 µM (inactive)
